Assay results reported in patent US20200281897A1, “INDAZOLE DERIVATIVES FOR CANCER TREATMENT” (Servicio Andaluz de Salud, priority 2016, published 2020).
Like-named read-outs stand apart in the source and are kept apart here. Residues, ends and D or L forms follow the SMILES beside them. *: point of attachment. Cbz = O=C(OCc1ccccc1)*; CH2F = FC*

Tests used:
Assay type in all cases: cell-based, human
U266 [1] = experiment: MTT cell viability assay, myeloma cell line U266; conditions: read-out: IC50, cell viability
Method: (§1) In vitro studies were carried out using six different human MM cell lines, U266, RPMI8226, MM1S, MM1R, U266-LR7, and RPMI-LR5. For ex vivo assays, human primary cells from healthy donors and MM patients were used (Table 1). Human MM cell lines U266, RPMI8226, and MM1.S were acquired from ATCC and lines U266-LR7, RPMI-LR5, and MM1.R were kindly provided by Dr. Enrique Ocio (Hospital Universitario de Salamanca, Spain). The primary cells were obtained from bone marrow (BM) aspirates or peripheral blood (PB) samples, and the peripheral blood mononuclear cells (PBMCs) were isolated by Ficoll-Hypaque centrifugation and washed twice in phosphate buffered saline (PBS) containing 1% BSA. Hematopoietic stem cells and B and T lymphocytes were isolated from healthy PB donors by positive immunomagnetic separation using human MACS CD34+, CD19+, and CD3+ microbeads, respectively. MM plasma cells were obtained from the bone marrow (BM) of patients with an infiltration of cells of more than 30% (Table 1). The MM plasma cells were identified using CD138+, and were then distinguished from the other cell populations by flow cytometry using a suitable combination of antibodies: anti-human CD64-FITC, CD34-PE, CD56-APC, CD38-APC-H7, and CD45-Pacific Blue antibodies (BD Biosciences, San Jose, Calif.). All the cell lines were cultured in RPMI-1640 supplemented with 10% fetal bovine serum (FBS) and 1% penicillin/streptomycin, as recommended by the supplier. For human primary cells, the concentration of FBS was up to 20%.
(§2) The MM cell lines and primary cells were exposed to different doses of indazole compounds, and viability was evaluated at 18, 48, and 72 hours. Pretreatments with the ceramide synthesis inhibitor (FB1), pan-caspase (ZVAD-FMK), and CB antagonists (PGN-8, PGN-37, and PGN-70) were performed for 30 minutes, and then the cells were incubated with indazole compound WIN-55 up to 18 hours. Cell viability was determined using the MTT assay Cell Counting Kit-8 (Dojindo, Kumamoto, Japan) according to the manufacturer's instructions.

RPMI-LR5 = experiment: MTT cell viability assay, myeloma cell line RPMI-LR5; conditions: read-out: IC50, cell viability
Method: as §1, §2

MM1R = experiment: MTT cell viability assay, myeloma cell line MM1R; conditions: read-out: IC50, cell viability
Method: as §1, §2

U266-LR7 = experiment: MTT cell viability assay, myeloma cell line U266-LR7; conditions: read-out: IC50, cell viability
Method: as §1, §2

[2] = system: lymphocytic T-cells (CD3+) and B-cells (CD19+); experiment: Viability of T and B lymphocytes from healthy donors (MTT)
Method: as §1, with “The MM plasma cells were identified using CD138+, and were then distinguished from the other cell populations by flow cytometry using a suitable combination of antibodies: anti-human CD64-FITC, CD34-PE, CD56-APC, CD38-APC-H7, and CD45-Pacific Blue antibodies (BD Biosciences, San Jose, Calif.). All the cell lines were cultured in RPMI-1640 supplemented with 10% fetal bovine serum (FBS) and 1% penicillin/streptomycin, as recommended by the supplier. For human primary cells, the concentration of FBS was up to 20%.” left out
The MM cell lines and primary cells were exposed to different doses of indazole compounds, and viability was evaluated at 18, 48, and 72 hours. […] Cell viability was determined using the MTT assay Cell Counting Kit-8 (Dojindo, Kumamoto, Japan) according to the manufacturer's instructions.

RPMI8226 = experiment: MTT cell viability assay, myeloma cell line RPMI; conditions: read-out: IC50, cell viability
Method: as §1, §2

myeloma cell lines = experiment: MTT cell viability assay, average over all myeloma cell lines; conditions: read-out: IC50 average
Method: as §1, §2

HL60 and KG-1a = experiment: Antagonists/inhibitors together with WIN-55,212-2, WST-1 viability in AML cells; conditions: WIN-55,212-2 10 μM, 18 hours; for effect of CB2 antagonist on cannabinoid-induced apoptosis: HL60 and KG1-a; for effect of inhibitor on cannabinoid-induced loss of viability: WST-1
Method: The cell lines and primary cells were cultured in 96-well plates (5×10e5 cells per well) with the addition of the indicated concentrations of WIN 55,212-2 or PGN cannabinoids in DMSO or with the solvent only in triplicate at 18, 48, and 72 hours. Caspase inhibitor Z-VAD (OMe)-FMK or the CB2 receptor antagonist PGN-8, -37, and -70, together with the cannabinoid WIN-55,212-2, were also added. Cell viability was determined by means of the WST-1 assay [2-(4-iodophenyl)-3-(4-nitrophenyl)-5-(2,4-disulfophenyl)-2H-tetrazolium] according to the manufacturer's instructions (Dojindo Molecular Technologies). Optical densities were measured at 450 nm using a Multiskan™ Go Microplate plate reader (Thermo Fisher Scientific, Waltham, Mass., USA).

U266 and RPMI cell lines = experiment: Pretreatment with antagonists/inhibitors before WIN-55, MTT viability; conditions: for effect of preincubation with CB2 antagonist on pro-apoptotic effect induced by WIN-55: 30 minutes pretreatment, then WIN-55 up to 18 hours; for effect of inhibitor on WIN-55-induced apoptosis / loss of viability: WIN-55 at suboptimal concentrations, 18 hours
Method: as §2

MM1S = experiment: MTT cell viability assay, myeloma cell line MM1S; conditions: read-out: IC50, cell viability
Method: as §1, §2

U266 [3] = experiment: Western blot and immunofluorescence in U266 cells; conditions: U266, 50 μM fumonisin B1
Method: The extracts for Western blot were taken after 0, 2, 6, 18, and 24 hours. The cells were lysed according to Gilbert et al., 2002. (J Immunol Methods. 2002, 271:185-201), by adding 2% ASB-14 (Calbiochem, Beeston, United Kingdom) to the isotonic lysis buffer. The protein concentration was determined by Pierce® Microplate BCA Protein Assay kit-Reducing Agent Compatible (Pierce, Rockford, Ill.). The samples were subjected to SDS/PAGE in AnykD precast gels (Bio Rad, Hercules, Calif.) and transferred to PVDF membranes using Trans-Blot® Turbo™ System (Bio-Rad). The membranes were incubated over night at 4° C. with primary antibody in 0.05% Tween 20-Tris buffered saline (TTBS) then with the suitable secondary antibody, and they were subjected to chemiluminescence detection. As a control condition, the cells were treated with DMSO (<0.15%) in RPMI 1640 medium from Gibco (Gaithersburg, Md.).
The antibodies for caspase-2, -8, -9, active caspase-3, -p-Akt (phospho T308), p-Erk (T202+Y204), -p-p38MAPK (phospho T180+Y182), -p-JNK (phospho T183+Y185), -SPT, and the CB1 and CB2 receptors were from Abcam, anti-MCL-1 and -Bcl-xL were from Santa Cruz Biotechnology, anti-PARP was from Cell Signaling Technology, anti-Bax and -Bak were from BD Biosciences. Anti-beta-tubulin was from Sigma-Aldrich. All the horseradish peroxidase (HRP)-conjugated secondary antibodies used were from Jackson ImmunoResearch and produced in a donkey to prevent the possible cross-reactivity when several tests were performed.
The cells treated for 6 hours with indazole compounds were collected and placed on a slide. Immunofluorescence staining was performed as described previously by Vielhaber et al. 2001 (Glycobiology. 2001, 11:451-7) using anti-ceramide as the primary antibody. The ceramide antibody was obtained from Sigma-Aldrich, and the Alexa-488-conjugated secondary antibody was obtained from Abcam. As a control condition, the cells were treated with DMSO (<0.15%) in RPMI 1640 medium from Gibco (Gaithersburg, Md.).

HL60 = experiment: Western blot and immunocytofluorescence in HL60 cells; conditions: HL60, WIN-55,212-2 10 μM
Source text: The detailed methodology for analyzing mitochondrial membrane potential (APm), Western Blot analysis, and immunocytofluorescence analysis has been described elsewhere 29

[4] = Homo sapiens, U-266, U266, MTT, 18 hours, doses 0-50 μM
[5] = Homo sapiens, RPMI-LRS, MTT, 18 hours, doses 0-50 μM
[6] = Homo sapiens, MM.1R, MM1R, MTT, 18 hours, doses 0-50 μM
[7] = Homo sapiens, U266-LR7, MTT, 18 hours, doses 0-50 μM
[8] = Homo sapiens, RPMI-8226, RPMI, MTT, 18 hours, doses 0-50 μM
[9] = Homo sapiens, average over the six myeloma cell lines, MTT, 18 hours

What does the source list for `c1ccc2c(COc3nn(CCN4CCCCC4)c4ccccc34)cccc2c1` [PGN6, 3-(1-naphthylmethoxy)-1-(2-piperidinoethyl)indazole]?
IC50 (U266 [1]; [4]): 25.4 µM; IC50 (RPMI-LR5; [5]): 13.7 µM; IC50 (MM1R; [6]): 18.6 µM; IC50 (U266-LR7; [7]): 78.2 µM; viability of the lymphocytes [2]: did not affect the viability of the lymphocytes; IC50 (RPMI8226; [8]): 14.4 µM; IC50 (myeloma cell lines; [9]): 29.7 µM

`O=[N+]([O-])c1ccc2[nH]nc(OCc3cccc4ccccc34)c2c1` [PGN-70, 3-(1-naphthylmethoxy)-5-nitro-1H-indazole] was tested. Which “effect of CB2 antagonist on cannabinoid-induced apoptosis” value (“effect of CB2 antagonist” for short) (HL60 and KG-1a) did it give?
Its value is “significantly inhibiting cannabinoid-induced apoptosis”.

What about the “effect of preincubation with CB2 antagonist on pro-apoptotic effect induced by WIN-55” value (shortened to “effect of preincubation”) (U266 and RPMI cell lines) of the same molecule?
The value was “considerably inhibited”.

Which IC50 (U266 [1]; [4]) does the source give for `Nc1ccc2c(c1)c(OCc1cccc3ccccc13)nn2CCN1CCCCC1` [PGN72, 5-amino-3-(1-naphthylmethoxy)-1-(2-piperidinoethyl)indazole] here?
Its IC50 is 21.2 µM.

And the IC50 (MM1S; Homo sapiens, MM1.S, MM1S, MTT, 18 hours, doses 0-50 μM)?
The IC50 was 24.8 µM.

What about the IC50 (RPMI-LR5; [5]) of the same molecule?
Its IC50 is 41.4 µM.

What about the IC50 (MM1R; [6]) of the same molecule?
The IC50 was 26.7 µM.

What about the IC50 (U266-LR7; [7]) of the same molecule?
Its IC50 is 20.6 µM.

And the IC50 (RPMI8226; [8])?
The IC50 was 19.6 µM.

And the IC50 (myeloma cell lines; [9])?
Its IC50 is 25.7 µM.

How did the “effect of inhibitor on cannabinoid-induced loss of viability” value (HL60 and KG-1a) turn out when `COC(=O)C[C@H](NC(=O)[C@H](C)NC(=O)[C@@H](NC(=O)OCc1ccccc1)C(C)C)C(=O)CF` [Z-VAD-FMK] (Cbz-Val-Ala-Asp(OMe)-CH2F) was run?
Its value is “abolished”.

What about the “effect of inhibitor on WIN-55-induced apoptosis / loss of viability” value (U266 and RPMI cell lines) of the same molecule?
The value was “prevented the apoptosis”.

Which results are given for `Nc1ccc2c(c1)c(OCc1ccc3ccccc3c1)nn2CCN1CCCCC1` [PGN34, 5-amino-3-(2-naphthylmethoxy)-1-(2-piperidinoethyl)indazole]?
IC50 (U266 [1]; Homo sapiens, U-266, 18 h): 26.9 µM; IC50 (MM1S; Homo sapiens, MM1.S, 18 h): 17.1 µM; IC50 (RPMI-LR5; Homo sapiens, 18 h): 23.2 µM; IC50 (MM1R; Homo sapiens, MM.1R, 18 h): 21 µM; IC50 (U266-LR7; Homo sapiens, 18 h): 17.8 µM; IC50 (RPMI8226; Homo sapiens, RPMI-8226, 18 h): 15.4 µM; IC50 (myeloma cell lines; Homo sapiens, 18 h): 20.2 µM

How did the “effect on PARP fragmentation induced by WIN-55” value (U266 [3]) turn out when `CCCC[C@@H](C)[C@@H](OC(=O)C[C@@H](CC(=O)O)C(=O)O)[C@H](C[C@@H](C)C[C@H](O)CCCC[C@@H](O)C[C@H](O)[C@H](C)N)OC(=O)C[C@@H](CC(=O)O)C(=O)O` [FB1, Fumonisin B1] was run?
The value was “considerably prevented the PARP fragmentation”.

What about the “effect of inhibitor on cannabinoid-induced loss of viability” value (HL60 and KG-1a) of the same molecule?
The value was “only partially prevented”.

And the “effect of inhibitor on WIN-55-induced apoptosis / loss of viability” value (U266 and RPMI cell lines)?
Its value is “significantly reverses the effect”.

For `Cn1nc(OCc2cccc3ccccc23)c2cc([N+](=O)[O-])ccc21` [PGN-8, 1-methyl-3-(1-naphthylmethoxy)-5-nitroindazole], which “effect of CB2 antagonist” value (HL60 and KG-1a) is on record?
The value was “significantly inhibiting cannabinoid-induced apoptosis”.

And the “effect of preincubation” value (U266 and RPMI cell lines)?
Its value is “considerably inhibited”.

`CCCCCCC(=O)CCCCCC/C=C/C[C@@H](O)[C@H](O)[C@@](N)(CO)C(=O)O` [myriocin, Myriocin] was tested. Which “effect on PARP fragmentation and Casp 3 cleavage induced by WIN-55,212-2” value (HL60) did it give?
The value was “prevented the fragmentation of PARP and the cleavage of Casp 3”.

How did the “effect of CB2 antagonist” value (HL60 and KG-1a) turn out when `COc1ccc(COc2n[nH]c3ccc([N+](=O)[O-])cc23)cc1` [PGN-37, 3-(4-methoxybenzyloxy)-5-nitro-1H-indazole] was run?
Its value is “significantly inhibiting cannabinoid-induced apoptosis”.

What about the “effect of preincubation” value (U266 and RPMI cell lines) of the same molecule?
The value was “considerably inhibited”.

Which results are given for `c1ccc2c(COc3nn(CCN4CCCC4)c4ccccc34)cccc2c1` [PGN17]?
IC50 (U266 [1]; U266, MTT, 18 hours, doses 0-50 μM): 20.7 µM; IC50 (MM1S; MM1S, MTT, 18 hours, doses 0-50 μM): 44.6 µM; IC50 (RPMI-LR5; RPMI-LRS, MTT, 18 hours, doses 0-50 μM): 21.7 µM; IC50 (MM1R; MM1R, MTT, 18 hours, doses 0-50 μM): 20.5 µM; IC50 (U266-LR7; U266-LR7, MTT, 18 hours, doses 0-50 μM): 51 µM; viability of the lymphocytes ([2]; healthy donors, doses with antiproliferative effect on MM cell lines): did not affect the viability of the lymphocytes; IC50 (RPMI8226; RPMI, MTT, 18 hours, doses 0-50 μM): 19.9 µM; IC50 (myeloma cell lines; average over the six myeloma cell lines, MTT, 18 hours): 29.7 µM
